Assay results: PubChem BioAssay (NCI)
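Each compound was tested at five concentrations against cells in 96-well plates for 48 hours. The concentration for 50% growth inhibition is given as GI50. TGI marks complete inhibition of growth.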

Experiments:
Assay in all cases: NCI tumour cell line growth inhibition, 48 h
A549 NSCLC = tested on: A549 NSCLC
LOX IMVI melanoma = tested on: LOX IMVI melanoma
M19-MEL melanoma = tested on: M19-MEL melanoma
TK-10 renal = tested on: TK-10 renal
U251 CNS = tested on: U251 CNS
NCI-H226 lung = tested on: NCI-H226 lung
786-0 renal = tested on: 786-0 renal
SR leukemia = tested on: SR leukemia
SW-620 colon = tested on: SW-620 colon
RPMI-8226 leukemia = tested on: RPMI-8226 leukemia
NCI-H522 lung = tested on: NCI-H522 lung
M14 melanoma = tested on: M14 melanoma
HL-60(TB) leukemia = tested on: HL-60(TB) leukemia
SK-OV-3 ovarian = tested on: SK-OV-3 ovarian
HCT-116 colon = tested on: HCT-116 colon
EKVX NSCLC = tested on: EKVX NSCLC
RXF 393 renal = tested on: RXF 393 renal
OVCAR-8 ovarian = tested on: OVCAR-8 ovarian
MOLT-4 leukemia = tested on: MOLT-4 leukemia
DMS 114 small cell lung = tested on: DMS 114 small cell lung
DLD-1 colon = tested on: DLD-1 colon
SN12C renal = tested on: SN12C renal
NCI-H23 lung = tested on: NCI-H23 lung
DMS 273 small cell lung = tested on: DMS 273 small cell lung
SNB-75 CNS = tested on: SNB-75 CNS
KM12 colon = tested on: KM12 colon
SK-MEL-2 melanoma = tested on: SK-MEL-2 melanoma
NCI-H460 lung = tested on: NCI-H460 lung
SNB-19 CNS = tested on: SNB-19 CNS
XF 498 CNS = tested on: XF 498 CNS
SF-268 CNS = tested on: SF-268 CNS
ACHN renal = tested on: ACHN renal
HCT-15 colon = tested on: HCT-15 colon
UACC-257 melanoma = tested on: UACC-257 melanoma
SF-539 CNS = tested on: SF-539 CNS
SK-MEL-28 melanoma = tested on: SK-MEL-28 melanoma
K-562 leukemia = tested on: K-562 leukemia
HOP-92 NSCLC = tested on: HOP-92 NSCLC
HT29 colon = tested on: HT29 colon
CCRF-CEM leukemia = tested on: CCRF-CEM leukemia
SF-295 CNS = tested on: SF-295 CNS
HOP-62 NSCLC = tested on: HOP-62 NSCLC
A498 renal = tested on: A498 renal
CAKI-1 renal = tested on: CAKI-1 renal
IGROV1 ovarian = tested on: IGROV1 ovarian
UACC-62 melanoma = tested on: UACC-62 melanoma
MALME-3M melanoma = tested on: MALME-3M melanoma
SK-MEL-5 melanoma = tested on: SK-MEL-5 melanoma
OVCAR-3 ovarian = tested on: OVCAR-3 ovarian
HOP-18 NSCLC = tested on: HOP-18 NSCLC
OVCAR-5 ovarian = tested on: OVCAR-5 ovarian
COLO 205 colon = tested on: COLO 205 colon
LXFL 529 NSCLC = tested on: LXFL 529 NSCLC
UO-31 renal = tested on: UO-31 renal
OVCAR-4 ovarian = tested on: OVCAR-4 ovarian
SNB-78 CNS = tested on: SNB-78 CNS
KM20L2 colon = tested on: KM20L2 colon
HCC-2998 colon = tested on: HCC-2998 colon

C=Cc1cncc(C#N)c1CCc1c(C#N)cncc1C=C
GI50 (A549 NSCLC): > 100 µM
TGI (A549 NSCLC): > 100 µM
TGI (LOX IMVI melanoma): > 100 µM
GI50 (M19-MEL melanoma): > 100 µM
TGI (M19-MEL melanoma): > 100 µM
GI50 (TK-10 renal): > 100 µM
TGI (TK-10 renal): > 100 µM
GI50 (U251 CNS): > 100 µM
TGI (U251 CNS): > 100 µM
GI50 (NCI-H226 lung): > 100 µM
TGI (NCI-H226 lung): > 100 µM
GI50 (786-0 renal): > 100 µM
TGI (786-0 renal): > 100 µM
TGI (SR leukemia): > 10 µM
GI50 (SW-620 colon): > 100 µM
TGI (SW-620 colon): > 100 µM
GI50 (RPMI-8226 leukemia): > 100 µM
TGI (RPMI-8226 leukemia): > 100 µM
GI50 (NCI-H522 lung): > 100 µM
TGI (NCI-H522 lung): > 100 µM
GI50 (M14 melanoma): > 100 µM
TGI (M14 melanoma): > 100 µM
GI50 (HL-60(TB) leukemia): > 100 µM
TGI (HL-60(TB) leukemia): > 100 µM
TGI (SK-OV-3 ovarian): > 10 µM
GI50 (HCT-116 colon): > 100 µM
TGI (HCT-116 colon): > 100 µM
GI50 (EKVX NSCLC): > 10 µM
TGI (EKVX NSCLC): > 100 µM
GI50 (RXF 393 renal): > 10 µM
TGI (RXF 393 renal): > 100 µM
GI50 (OVCAR-8 ovarian): > 100 µM
TGI (OVCAR-8 ovarian): > 100 µM
GI50 (MOLT-4 leukemia): > 100 µM
TGI (MOLT-4 leukemia): > 100 µM
TGI (DMS 114 small cell lung): > 10 µM
GI50 (DLD-1 colon): > 100 µM
TGI (DLD-1 colon): > 100 µM
GI50 (SN12C renal): > 100 µM
TGI (SN12C renal): > 100 µM
GI50 (NCI-H23 lung): > 100 µM
TGI (NCI-H23 lung): > 100 µM
GI50 (DMS 273 small cell lung): > 100 µM
TGI (DMS 273 small cell lung): > 100 µM
GI50 (SNB-75 CNS): > 100 µM
TGI (SNB-75 CNS): > 100 µM
GI50 (KM12 colon): > 100 µM
TGI (KM12 colon): > 100 µM
GI50 (SK-MEL-2 melanoma): > 100 µM
TGI (SK-MEL-2 melanoma): > 100 µM
GI50 (NCI-H460 lung): > 100 µM
TGI (NCI-H460 lung): > 100 µM
GI50 (SNB-19 CNS): > 100 µM
TGI (SNB-19 CNS): > 100 µM
GI50 (XF 498 CNS): > 100 µM
TGI (XF 498 CNS): > 100 µM
TGI (SF-268 CNS): > 10 µM
GI50 (ACHN renal): > 100 µM
TGI (ACHN renal): > 100 µM
GI50 (HCT-15 colon): > 100 µM
TGI (HCT-15 colon): > 100 µM
GI50 (UACC-257 melanoma): > 100 µM
TGI (UACC-257 melanoma): > 100 µM
GI50 (SF-539 CNS): > 100 µM
TGI (SF-539 CNS): > 100 µM
TGI (SK-MEL-28 melanoma): > 10 µM
GI50 (K-562 leukemia): > 100 µM
TGI (K-562 leukemia): > 100 µM
TGI (HOP-92 NSCLC): > 10 µM
GI50 (HT29 colon): > 100 µM
TGI (HT29 colon): > 100 µM
GI50 (CCRF-CEM leukemia): > 100 µM
TGI (CCRF-CEM leukemia): > 100 µM
GI50 (SF-295 CNS): > 100 µM
TGI (SF-295 CNS): > 100 µM
GI50 (HOP-62 NSCLC): > 100 µM
TGI (HOP-62 NSCLC): > 100 µM
GI50 (A498 renal): > 100 µM
TGI (A498 renal): > 100 µM
GI50 (CAKI-1 renal): > 10 µM
TGI (CAKI-1 renal): > 100 µM
GI50 (IGROV1 ovarian): > 100 µM
TGI (IGROV1 ovarian): > 100 µM
GI50 (UACC-62 melanoma): > 100 µM
TGI (UACC-62 melanoma): > 100 µM
GI50 (MALME-3M melanoma): > 100 µM
TGI (MALME-3M melanoma): > 100 µM
GI50 (SK-MEL-5 melanoma): > 100 µM
TGI (SK-MEL-5 melanoma): > 100 µM
GI50 (OVCAR-3 ovarian): > 100 µM
TGI (OVCAR-3 ovarian): > 100 µM
TGI (HOP-18 NSCLC): > 10 µM
GI50 (OVCAR-5 ovarian): > 100 µM
TGI (OVCAR-5 ovarian): > 100 µM
TGI (COLO 205 colon): > 10 µM
GI50 (LXFL 529 NSCLC): > 100 µM
TGI (LXFL 529 NSCLC): > 100 µM
GI50 (UO-31 renal): > 100 µM
TGI (UO-31 renal): > 100 µM
TGI (OVCAR-4 ovarian): > 10 µM
GI50 (SNB-78 CNS): > 100 µM
TGI (SNB-78 CNS): > 100 µM
GI50 (KM20L2 colon): > 100 µM
TGI (KM20L2 colon): > 100 µM
GI50 (HCC-2998 colon): > 100 µM
TGI (HCC-2998 colon): > 100 µM
